Laboratory results as given in ChEMBL document CHEMBL1135524, “2-Ethyl and 2-ethylidene analogues of 1alpha,25-dihydroxy-19-norvitamin D(3): synthesis, conformational analysis, biological activities, and docking to the modeled rVDR ligand binding domain” (2002).
Several values for one entry are separate records, joined by “and”; a condition that tells them apart may be missing. Identical values can stand only once.

How the values were obtained:
Rattus norvegicus [1] = organism: Rattus norvegicus; test: Bone calcium mobilization in rats maintained on a very low calcium diet at a dose 260 (pmol); format: functional, organism-based
HL-60 [2] = test: Ability to induce differentiation of human promyelocyte HL-60 cells into monocytes.; format: functional; settings: read-out: ED50 (the source's name)
Rattus norvegicus [3] = organism: Rattus norvegicus; test: Intestinal calcium transport at dose 260 (pmol); format: functional
HL-60 [4] = test: Ratio of average ED50 to 1-alpha,25-(OH)2D3 ED50 for differentiation assay; format: functional, Homo sapiens
Rattus norvegicus [5] = organism: Rattus norvegicus; test: Intestinal calcium transport at dose 130 (pmol); format: functional
Rattus norvegicus [6] = organism: Rattus norvegicus; test: (§1) Bone calcium mobilization in rats maintained on a very low calcium diet at a dose 130 (pmol); format: functional, organism-based
[7] = biological target: T1, Vitamin D3 receptor (Sus scrofa) (UniProt A3RGC1); test: Binding affinity for porcine intestinal Vitamin D3 receptor (VDR)
T1 sequence (whole entry): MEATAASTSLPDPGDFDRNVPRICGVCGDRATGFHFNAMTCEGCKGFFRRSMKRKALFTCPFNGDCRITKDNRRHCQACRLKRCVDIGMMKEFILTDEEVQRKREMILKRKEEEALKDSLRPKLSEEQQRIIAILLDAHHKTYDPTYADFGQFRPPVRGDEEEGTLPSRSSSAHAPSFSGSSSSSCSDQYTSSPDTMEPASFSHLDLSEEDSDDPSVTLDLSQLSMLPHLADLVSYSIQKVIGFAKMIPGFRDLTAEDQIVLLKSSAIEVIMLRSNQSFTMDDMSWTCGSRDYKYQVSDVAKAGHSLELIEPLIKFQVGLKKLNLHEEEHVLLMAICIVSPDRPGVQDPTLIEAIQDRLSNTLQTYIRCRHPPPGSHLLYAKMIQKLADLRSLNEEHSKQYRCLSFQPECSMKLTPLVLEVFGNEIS

Rattus norvegicus [8] = organism: Rattus norvegicus; test: as §1; format: functional, organism-based; remark: listed apart in the source

| EC50 (HL-60 [2]) | Structure (SMILES) | Serum Ca2+ (Rattus norvegicus [1]) | Ca2+ transport (Rattus norvegicus [3]) | Activity ratio (HL-60 [4]) | Ca2+ transport (Rattus norvegicus [5]) | also measured |
| --- | --- | --- | --- | --- | --- | --- |
|  | CCC1[C@H](O)CC(=C/C=C2\CCC[C@]3(C)[C@@H]([C@H](C)CCCC(C)(C)O)CC[C@@H]23)C[C@H]1O (some centres undefined) [listing 1 of 3 here] | 5 and 5.1 |  |  |  |  |
| 6.3 nM | CCC1[C@H](O)CC(=C/C=C2\CCC[C@]3(C)[C@@H]([C@@H](C)CCCC(C)(C)O)CC[C@@H]23)C[C@H]1O (some centres undefined) [listing 1 of 3 here] |  | 4.1 | 2.3 |  |  |
| 4 nM | CC=C1[C@H](O)CC(=C/C=C2\CCC[C@]3(C)[C@@H]([C@H](C)CCCC(C)(C)O)CC[C@@H]23)C[C@H]1O [listing 1 of 3 here] |  | 4.4 | 1.6 | 5.7 |  |
|  | CC=C1[C@H](O)CC(=C/C=C2\CCC[C@]3(C)[C@@H]([C@H](C)CCCC(C)(C)O)CC[C@@H]23)C[C@H]1O [listing 2 of 3 here] |  | 5 | 0.8 | 6.8 | EC50 (HL-60 [2]; Homo sapiens, HL-60): 2 nM |
|  | CC=C1[C@H](O)CC(=C/C=C2\CCC[C@]3(C)[C@@H]([C@@H](C)CCCC(C)(C)O)CC[C@@H]23)C[C@H]1O [listing 1 of 3 here] |  | 9 | 0.09 | 5.8 | EC50 (HL-60 [2]; Homo sapiens, HL-60): 0.22 nM |
| 0.15 nM | CC=C1[C@H](O)CC(=C/C=C2\CCC[C@]3(C)[C@@H]([C@@H](C)CCCC(C)(C)O)CC[C@@H]23)C[C@H]1O [listing 2 of 3 here] |  | 6.6 | 0.06 | 6.7 |  |
|  | CC=C1[C@H](O)CC(=C/C=C2\CCC[C@]3(C)[C@@H]([C@H](C)CCCC(C)(C)O)CC[C@@H]23)C[C@H]1O [listing 3 of 3 here] | 4.5 and 4.4 |  |  |  | Serum Ca2+ (Rattus norvegicus [6]): 5.2 and 4.2 |
| 0.46 nM | CCC1[C@H](O)CC(=C/C=C2\CCC[C@]3(C)[C@@H]([C@H](C)CCCC(C)(C)O)CC[C@@H]23)C[C@H]1O (some centres undefined) [listing 2 of 3 here] |  | 4 | 0.17 |  |  |
| 12 nM | CCC1[C@H](O)CC(=C/C=C2\CCC[C@]3(C)[C@@H]([C@H](C)CCCC(C)(C)O)CC[C@@H]23)C[C@H]1O (some centres undefined) [listing 3 of 3 here] |  | 3.7 | 4.4 |  |  |
| 0.13 nM | CCC1[C@H](O)CC(=C/C=C2\CCC[C@]3(C)[C@@H]([C@@H](C)CCCC(C)(C)O)CC[C@@H]23)C[C@H]1O (some centres undefined) [listing 2 of 3 here] |  |  | 0.05 |  |  |
|  | CC=C1[C@H](O)CC(=C/C=C2\CCC[C@]3(C)[C@@H]([C@@H](C)CCCC(C)(C)O)CC[C@@H]23)C[C@H]1O [listing 3 of 3 here] | 8.2 and 4.4 |  |  |  | Serum Ca2+ (Rattus norvegicus [6]): 12.1 and 5.1; ED50 [7]: 0.28 nM and 0.5 nM |
|  | CCC1[C@H](O)CC(=C/C=C2\CCC[C@]3(C)[C@@H]([C@@H](C)CCCC(C)(C)O)CC[C@@H]23)C[C@H]1O (some centres undefined) [listing 3 of 3 here] | 5.6 |  |  |  |  |
|  | C=C1/C(=C\C=C2/CCC[C@]3(C)[C@@H]([C@H](C)CCCC(C)(C)O)CC[C@@H]23)C[C@@H](O)C[C@@H]1O [CALCITRIOL] | 5.8 (2×) and 6.4 (2×) | 6.5 and 5.9 and 6 |  | 5.5 and 4.9 and 5.2 | Serum Ca2+ (Rattus norvegicus [6]): 5.1; Serum Ca2+ (Rattus norvegicus [8]): 5.2 and 5.7 |
